Patent publication US4818754A, “Certain anti-inflammatory pyrazolo [4,3-b] pyridine 7-amines” (Beecham Group p.l.c. of Beecham House, priority 1986, dated 1989)

Assays:
[1] = system: swelling induced by oxazolone; experiment: Mouse oxazolone test (topical anti-inflammatory activity in mice sensitised to oxazolone, ear swelling); assay type: in vivo; conditions: dose 200 μg/ear, 1 hour before challenge, 24 hours after, CDl male mice, *p < 0.1, **p < 0.01, ***p < 0.001
Experimental: Compounds were tested for topical anti-inflammatory activity in a model system using the mouse sensitised to oxazolone, by a method modified from that of Dietrich and Hess [Int. Arch. Allergy, 38, 246 (1970)].
Mice are sensitised with oxazolone (2 mg in 20 μl acetone) on a shaved area of the abdomen. CDl male mice of around 25 g bodyweight (8 animals per group) are used. 5 days later, the animals receive 10 μl tetrahydrofuran:methanol (1:1 v/v) on the right ear and the test compound in 10 μl of the same solvent on the left ear. 1 hour later, the animals are challenged with 100 μg oxazolone in 10 μl acetone on each ear. Negative control animals receive no treatment except 10 μl tetrahydrofuran:methanol at the initial time point. After 24 hours, the animals are killed and the ears are removed by cutting along the hairline and then weighed. The swelling induced by oxazolone is assessed as the increase in the weight of the right ears over that of the right ears of solvent-treated control animals, as a proportion of the weight of solvent-treated right ears. The swelling induced in the same animals in the presence of test compound is similarly the increase in the weight of the left ears over that of the left ears of the solvent-treated control animals, expressed as a proportion of the weight of solvent-treated left ears.
thus, % inhibition=([mean wt.left experimental ears-mean wt.left 100-control ears]/[mean wt.left control ears])×100 ([mean wt.right experimental ears-mean wt.right control ears]/[mean wt.right control ears])
(§1) This method reduces the contribution of inter-animal variations in responsiveness to the inflammatory stimulus, and also compensates for any consistent bias in cutting off left and right ears. The significance of the inhibition is calculated using a paired `t` test of the two values of proportional weight increases.

[2] = system: swelling induced by cantharidin; experiment: Mouse cantharidin test (topical anti-inflammatory activity, mouse ear swelling); assay type: in vivo; conditions: 24 hours, CDl male mice, **p < 0.01, ***p < 0.001; for inhibition in vivo at 200 µg/ear: dose 200 μg/ear; for inhibition in vivo at 500 µg/ear: dose 500 μg/ear
Experimental: Compounds were tested for topical anti-inflammatory activity in a cantharidin mouse ear screen, modified from Swingle, Reiter and Schwartzmiller [Arch. int. Pharmacodyn. 254, 168-176, 1981].
25 μg cantharidin (in 10 μl tetrahydrofuran:methanol, 1:1 v/v) is applied to both ears of CDl male mice, 25 g bodyweight. 8 animals are used per experimental group. Compounds are included in the irritant solution applied to the left ear only. Negative control animals receive no treatment except 10 μl solvent on each ear. After 24 hours, the animals are killed and the ears are removed by cutting along the hairline and then weighed. The swelling induced by cantharidin is assessed as the increase in the weight of the right ears over that of the right ears of solvent-treated control animals, as a proportion of the weight of solvent-treated right ears. The swelling induced in the same animals in the presence of test compound is similarly the increase in the weight of the left ears over that of the left ears of the solvent-treated control animals, expressed as a proportion of the weight of solvent-treated left ears.
thus, % inhibition=([means wt.left experimental ears-mean wt.left 100-control ears]/[mean wt.left control ears])×100 ([mean wt.right experimental ears-mean wt.right control ears]/[mean wt.right control ears])
as §1

CC(=O)OCCCNc1cc(C)nc2cn[nH]c12 [Example 6, 7-[3-Acetoxypropylamino]-5-methyl-1H-pyrazolo[4,3-b]-pyridine]
% Inhibition [1]: 53%
inhibition in vivo at 200 µg/ear [2]: 70%

CC(C)CCOC(=O)CCCNc1ccnc2cn[nH]c12 [Example 12, Isoamyl (7-(1H-pyrazolo[4,3-b]pyridyl)amino)butanoate]
inhibition in vivo at 200 µg/ear [2]: 78%

CCOC(=O)CCCNc1ccnc2cn[nH]c12 [Example 2, Ethyl 4-(7-(1H-Pyrazolo[4,3-b]pyridyl)amino)butanoate]
% Inhibition [1]: 48.6%
inhibition in vivo at 500 µg/ear [2]: 94.6%

Cc1cc(NCCCN2CCCC2=O)c2[nH]ncc2n1 [Example 3, 5-Methyl-7-(3-(1-(2-oxopyrrolidinyl))propylamino)-1H-pyrazolo[4,3-b]pyridine]
% Inhibition [1]: 44.1%
inhibition in vivo at 200 µg/ear [2]: 75.3%

Cc1cc(NCCOC(=O)c2ccccc2)c2[nH]ncc2n1 [Example 7, 7-[2-Benzoyloxyethylamino]-5-methyl-1H-pyrazolo[4,3-b]pyridine]
% Inhibition [1]: 30%
inhibition in vivo at 500 µg/ear [2]: 99.6%

O=C(CCCNc1ccnc2cn[nH]c12)NCc1ccccc1 [Example 8, (7-(1H-Pyrazolo[4,3,-b]pyridyl)amino)butanoic acid benzylamide]
inhibition in vivo at 500 µg/ear [2]: 95%

CCC(=O)OCCNc1cc(C)nc2cn[nH]c12 [Example 10, 7-[2-Propionyloxyethylamino]-5-methyl-1H-pyrazolo[4,3-b]pyridine]
inhibition in vivo at 200 µg/ear [2]: 55%

CCCCC(=O)OCCNc1cc(C)nc2cn[nH]c12 [Example 9, 7-(2-Pentanoyloxyethylamino)-5-methyl-1H-pyrazolo[4,3-b]pyridine]
inhibition in vivo at 200 µg/ear [2]: 69%

CCCCC(=O)OCCCNc1cc(C)nc2cn[nH]c12 [Example 4, 7-[3-Pentanoyloxypropylamino]-5-methyl-1H-pyrazolo[4,3-b]pyridine]
inhibition in vivo at 200 µg/ear [2]: 69.9%

Cc1cc(NCCN2CCOCC2)c2[nH]ncc2n1 [Example 5, 7-[2-(N-Morpholino)ethylamino]-5-methyl-1H-pyrazolo [4,3-b]pyridine dihydrate]
% Inhibition [1]: 61.6%
inhibition in vivo at 200 µg/ear [2]: 97.6%
